Results published in the supplement of paper PMC8671470.
Counter-ions that a name gives are not always drawn. ± gives the standard deviation of the averaged measurements.

Legend:
Conditions in all cases: 72 h
[1] = system: myeloid leukemia patient primary cells Pat.10; assay: cell viability (% survival relative to DMSO control); higher = less cytotoxic
In short: (§1)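 Where an area under the curve appears, it was computed with the drc and PharmacoGx R packages from log-logistic fits. Those fits used four parameters. The underlying viability data came from CellTiter-Glo after 72 h, normalised to DMSO and 10 μM proteasome-inhibitor wells, with thawed, Ficoll-purified AML or CML patient mononuclear cells at 10,000 cells/well in RPMI 1640 with 10% FBS on 384-well plates pre-printed with 70 compounds at five tenfold concentrations (1–10,000 nM) in duplicate.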

[2] = system: myeloid leukemia patient primary cells Pat.11; assay: as above
In short: as §1

[3] = system: myeloid leukemia patient primary cells Pat.12; assay: as above
In short: as §1

[4] = system: myeloid leukemia patient primary cells Pat.13; assay: as above
In short: as §1

[5] = system: myeloid leukemia patient primary cells Pat.14; assay: as above
In short: as §1

[6] = system: myeloid leukemia patient primary cells Pat.15; assay: as above
In short: as §1

[7] = system: myeloid leukemia patient primary cells Pat.1; assay: as above
In short: as §1

[8] = system: myeloid leukemia patient primary cells Pat.2; assay: as above
In short: as §1

[9] = system: myeloid leukemia patient primary cells Pat.3; assay: as above
In short: as §1

[10] = system: myeloid leukemia patient primary cells Pat.4; assay: as above
In short: as §1

[11] = system: myeloid leukemia patient primary cells Pat.5; assay: as above
In short: as §1

[12] = system: myeloid leukemia patient primary cells Pat.6; assay: as above
In short: as §1

[13] = system: myeloid leukemia patient primary cells Pat.7; assay: as above
In short: as §1

[14] = system: myeloid leukemia patient primary cells Pat.8; assay: as above
In short: as §1

[15] = system: myeloid leukemia patient primary cells Pat.9; assay: as above
In short: as §1

HL-60 [16] = assay: cell viability (% survival relative to DMSO control); higher = less cytotoxic
In short: (§2)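 Area under the curve, where listed, was derived from four-parameter log-logistic fits with drc and PharmacoGx. These fits used CellTiter-Glo viability from HL-60 cells in RPMI 1640 with 10% FBS, normalised to DMSO wells and wells holding 10 μM proteasome inhibitor. The full library was rescreened on 384-well plates in duplicate at five tenfold concentrations, 1–10,000 nM, with DMSO or 100 nM of one of three metabolic inhibitors, for 72 h at 37 °C, 5% CO2.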

HL-60 [17] = assay: area under dose-response curve (viability, 1 nM-10 uM) (fraction (0-1)); higher = more sensitive
In short: as §2

Cc1c2c(=O)n(-c3ccccc3Cl)[nH]c2cc(=O)n1Cc1ccccn1
cell viability [%]
Conditions	1 nM	10 nM	100 nM	1000 nM	10000 nM
[1]	27.2	64.5	42.2	86.1	42.3
[2]	88	95.7	88.1	99.3	99.1
[3]	89.5	97.6	99.3	88.3	92.2
[4]	66.5	80	92.6	88.9	92.5
[5]	28.5	69.8	64.5	99.6	> 100
[6]	77.3	83.4	81.8	95.5	93
[7]	53.7	89.9	91.5	96.7	85.5
[8]	86.2	92.7	88.6	94.6	> 100
[9]	25.8	94.3	92.2	> 100	> 100
[10]	63.6	90.8	81.5	98.5	72.8
[11]	3.33	9.25	36.7	81.3	85.9
[12]	84.6	91.1	91.7	> 100	> 100
[13]	13.2	82.9	63.7	91	> 100
[14]	79.7	92.3	86.6	96.9	75.9
[15]	1.24	62.4	54.9	100	100

O=c1cc(N2CCOCC2)oc2c(-c3ccccc3)cccc12
cell viability [%], HL-60 [16]
Conditions	0.001 µM	0.01 µM	0.1 µM	1 µM	10 µM
co-treatment: AZD3965 100 nM	99.5 ± 2	101 ± 1.9	103.3 ± 0.19	100 ± 6.1	75.2 ± 6.2
co-treatment: DMSO vehicle	99.2 ± 1.9	100 ± 6.6	102 ± 3.3	91.6 ± 11	86 ± 1.8
co-treatment: GSK2194069 100 nM	107 ± 0.78	101.4 ± 0.35	105 ± 5	99.4 ± 1.9	84 ± 6.9
co-treatment: pictilisib 100 nM	110 ± 19	104 ± 1.6	103 ± 1.6	92.2 ± 13	79.6 ± 15

Conditions	area under dose-response curve, co-treatment: AZD3965 100 nM	area under dose-response curve, co-treatment: GSK2194069 100 nM	area under dose-response curve, co-treatment: pictilisib 100 nM	cell viability, 1 nM [%]	cell viability, 10 nM [%]	cell viability, 100 nM [%]	cell viability, 1000 nM [%]	cell viability, 10000 nM [%]
HL-60 [17]	< 0.0301	< 0.0301	0.058	–	–	–	–	–
[1]	–	–	–	31.3	46.9	78.1	50.8	22.6
[2]	–	–	–	88.7	94.2	96.7	91.1	65.2
[3]	–	–	–	91.4	98.3	92.6	97.4	92.4
[4]	–	–	–	88.7	95.7	83.6	91.4	45.6
[5]	–	–	–	86.4	56.8	91.1	77.9	58.3
[6]	–	–	–	77.5	> 100	97	81.7	10.2
[7]	–	–	–	77.8	83.5	78	63.6	27.5
[8]	–	–	–	92.1	87.9	99.7	91.1	67.2
[9]	–	–	–	96.2	37.6	92.2	80	61.6
[10]	–	–	–	78.8	98.5	86.1	63.1	14.4
[11]	–	–	–	47.8	0.265	70.4	58.3	< 0
[12]	–	–	–	91.8	82.3	93.2	97	68.3
[13]	–	–	–	84.4	64.8	94.8	92.1	80.5
[14]	–	–	–	88.3	86	92.4	67.1	61.5
[15]	–	–	–	63.7	15.2	77.7	54.8	12.5

O=C1C(SCCO)=C(SCCO)C(=O)c2ccccc21
cell viability [%], HL-60 [16]
Conditions	0.001 µM	0.01 µM	0.1 µM	1 µM	10 µM
co-treatment: AZD3965 100 nM	102 ± 2.9	105 ± 6.2	104 ± 5.2	95.3 ± 12	-0.491 ± 0.62
co-treatment: DMSO vehicle	101 ± 6.2	104.7 ± 0.88	99.1 ± 1.8	102 ± 4.8	7.09 ± 8.5
co-treatment: GSK2194069 100 nM	99.5 ± 8.8	98.79 ± 0.56	97.3 ± 9	102 ± 4.9	1.87 ± 0.7
co-treatment: pictilisib 100 nM	107.4 ± 0.62	104 ± 5.3	95.6 ± 9.2	75.46 ± 0.6	-0.39 ± 0.42

Conditions	area under dose-response curve, co-treatment: AZD3965 100 nM	area under dose-response curve, co-treatment: DMSO vehicle	area under dose-response curve, co-treatment: GSK2194069 100 nM	area under dose-response curve, co-treatment: pictilisib 100 nM	cell viability, 1 nM [%]	cell viability, 10 nM [%]	cell viability, 100 nM [%]	cell viability, 1000 nM [%]	cell viability, 10000 nM [%]
HL-60 [17]	0.139	0.114	0.125	0.192	–	–	–	–	–
[1]	–	–	–	–	29.3	> 100	60.9	35	> 100
[2]	–	–	–	–	96.1	91.4	99.8	7.63	0.114
[3]	–	–	–	–	94.2	99.6	92	2.07	< 0
[4]	–	–	–	–	61.2	90.8	96.4	76.4	< 0
[5]	–	–	–	–	41.2	91.4	61.7	5.04	4.94
[6]	–	–	–	–	82.6	89.3	63.2	2.59	0.4
[7]	–	–	–	–	81.5	92.4	88.1	< 0	< 0
[8]	–	–	–	–	93.1	> 100	97.1	55.8	0.14
[9]	–	–	–	–	21.4	97.2	95.5	9.9	< 0
[10]	–	–	–	–	76.4	89.5	> 100	3.28	2.39
[11]	–	–	–	–	2.39	98.5	57.2	2.01	2.39
[12]	–	–	–	–	77.1	> 100	99.3	71.1	< 0
[13]	–	–	–	–	37.3	96.4	57.1	< 0	< 0
[14]	–	–	–	–	74.2	70	95.1	65.4	0.0301
[15]	–	–	–	–	1.27	95.1	28.7	< 0	< 0

Cn1cc(-c2ccncc2)c(-c2ccc(OCc3ccc4ccccc4n3)cc2)n1
cell viability [%]
Conditions	1 nM	10 nM	100 nM	1000 nM	10000 nM
[1]	95	65	78.5	44.2	54.7
[2]	99.1	98.1	> 100	87.9	99.3
[3]	98.4	97	> 100	82.3	87.9
[4]	88.2	87	87.9	70.8	53.5
[5]	82.6	86.8	86.7	50.1	43.4
[6]	94.3	84.7	97.6	83.1	75.2
[7]	82.2	91.2	97.1	73	73.6
[8]	94.2	94.8	98.5	77.3	80.2
[9]	91.6	90.2	> 100	48.8	29.9
[10]	93.5	82.6	90.3	85.4	97
[11]	26.3	1.33	18	0.265	< 0
[12]	94.1	88.2	95.8	73.5	68.8
[13]	90.5	73.5	82.7	17.1	32.4
[14]	81	89.1	93.4	74.4	83.6
[15]	62.4	36.5	32.9	3.45	11.7

O=C(NCCN1CCC(n2c(O)nc3ccccc32)CC1)c1cc2cc(F)ccc2[nH]1 [FIPI]
cell viability [%], HL-60 [16]
Conditions	0.001 µM	0.01 µM	0.1 µM	1 µM	10 µM
co-treatment: AZD3965 100 nM	104 ± 2.1	99.7 ± 3.9	103 ± 14	102 ± 4.5	107 ± 3.7
co-treatment: DMSO vehicle	101.7 ± 0.73	100.3 ± 0.26	104 ± 2.4	108 ± 4.5	107 ± 3
co-treatment: GSK2194069 100 nM	98.6 ± 1.2	99.3 ± 1.1	102 ± 6.9	106 ± 5.5	91.2 ± 1.8
co-treatment: pictilisib 100 nM	106 ± 9.6	105.7 ± 0.28	110 ± 12	110 ± 1.8	95.5 ± 7.1

HL-60 [17]
Conditions	area under dose-response curve
co-treatment: AZD3965 100 nM	< 0.0301
co-treatment: DMSO vehicle	< 0.0301
co-treatment: GSK2194069 100 nM	< 0.0301
co-treatment: pictilisib 100 nM	< 0.0301

CCN(CCO)CCCC(C)Nc1ccnc2cc(Cl)ccc12 (stereo not given) [Hydroxychloroquine sulfate]
cell viability [%], HL-60 [16]
Conditions	0.001 µM	0.01 µM	0.1 µM	1 µM	10 µM
co-treatment: AZD3965 100 nM	91.8 ± 6	97.2 ± 7.5	105 ± 4	96.7 ± 1.4	101 ± 1.3
co-treatment: DMSO vehicle	92.3 ± 6.9	98.9 ± 4.7	101 ± 6.6	98.9 ± 6.2	99.8 ± 2.9
co-treatment: GSK2194069 100 nM	97 ± 19	101 ± 2.1	111 ± 7.2	99.5 ± 8	104 ± 7.1
co-treatment: pictilisib 100 nM	86.1 ± 14	101 ± 1.4	109 ± 7.7	107 ± 11	103 ± 9.1

HL-60 [17]
Conditions	area under dose-response curve
co-treatment: AZD3965 100 nM	< 0.0301
co-treatment: DMSO vehicle	< 0.0301
co-treatment: GSK2194069 100 nM	< 0.0301
co-treatment: pictilisib 100 nM	< 0.0301
